# According to US9180159B2, “Use of cell-permeable peptide inhibitors of the JNK signal transduction pathway for the treatment of chronic or non-chronic inflammatory digestive diseases” (Xigen Inflammation Ltd., priority 2008, dated 2015):
# Non-standard residues stand in square brackets, D forms with d.
# Key:
# TNBS-induced colitis [1] = assay: TNBS-induced colitis (IBD study) in BALB/c mice, Example 12; assay type: in vivo; details: for clinical score: XG-102 any dose, route or schedule, Sulfasalazine 10 mg/kg PO daily
# Experimental: b) Constitution of test groups and dose levels • The table below lists the experimental groups comprising the study.
# c) Test Procedures • Colitis was induced by administration of TNBS […], as a single or repeated daily doses (see above).
# d) Observations and Examinations • i) Clinical signs • Throughout the duration of the above experiment, careful clinical examinations were carried out and recorded. Observations included changes external appearance, e.g. of the skin, fur, eyes, mucous membranes, occurrence of secretions and excretions (e.g. diarrhea), and autonomic activity. Changes in gait, posture and response to handling, as well as the presence of bizarre behavior, tremors, convulsions, sleep and coma were also noted. • ii) Body weights • Determination of individual body weight of animals was made on a daily basis. • iii) Clinical assessment of colitis • Body weight, stool consistency and bleeding per rectum were all recorded daily and served as the parameters of disease severity score:
# • iv) Gross pathology of the colon • On the last day of the experiment, animals were euthanized and the colon was removed for gross pathology evaluation according to the following score: […]
# JNK = details: JBDs; Dickens et al. Science 277: 693 (1997); cited from earlier work
# TC-3 cell cultures = assay: Cellular import and intracellular persistence of fluorescein-labeled peptides in TC-3 cells; assay type: cell-based; details: 1 μM
# Experimental: The ability of the L- and D-enantiomeric forms of TAT and TAT-IB1(s) peptides (“TAT-IB peptides”) to enter cells was evaluated. L-TAT, D-TAT, L-TAT-IB1(s), and D-TAT-IB1(s) peptides [SEQ ID NOs: 5, 6, 9 and 12, respectively] were labeled by N-terminal addition of a glycine residue conjugated to fluorescein. Labeled peptides (1 μM) were added to TC-3 cell cultures, which were maintained as described in Example 3. At predetermined times cells were washed with PBS and fixed for five minutes in ice-cold methanol-acetone (1:1) before being examined under a fluorescence microscope. Fluorescein-labeled BSA (1 μM, 12 moles/mole BSA) was used as a control.
# Little to no signal was present at 48 hours.
# [2] = system: transient global ischemia; details: Carboni et al. 2004; cited from earlier work
# [3] = system: primary embryonic cultures and differentiated PC12 cells; details: at dosages that inhibit activation of JNKs; after trophic withdrawal; cited from earlier work
# [4] = mice treated with 1-methyl-4-phenyl tetrahydropyridine; cited from earlier work
# [5] = system: cultured chick embryonic dorsal root ganglion, sympathetic, ciliary and motor neurons; details: Borasio et al. 1998; cited from earlier work
# TC-3 cells = assay: IL-1 induced pancreatic beta-cell death in TC-3 cells treated with peptides; assay type: cell-based; details: one single addition 1 μM
# Experimental: Inhibition of IL-1 induced pancreatic beta-cell death by the D-TAT-IB1(s) peptide was analyzed. TC-3 cells were incubated as described above for 30 minutes with one single addition of the indicated peptides (1, μM), then IL-1 (10 ng/ml) was added.
# Apoptotic cells were then counted after two days of incubation with IL-1 by use of Propidium Iodide and Hoechst 33342 nuclear staining. A minimum of 1,000 cells were counted for each experiment.
# Long term inhibition of IL-1P induced cell-death by the D-TAT-IB1 peptide was also analyzed. TC-3 cells were incubated as above for 30 minutes with one single addition of the indicated peptides (1 μM), then IL-1 (10 ng/ml) was added, followed by addition of the cytokine every two days. Apoptotic cells were then counted after 15 days of incubation with IL-1 by use of propidium iodide and Hoechst 33342 nuclear staining. […] A minimum of 1.000 cells were counted for each experiment.
# [6] = system: Primary cultured macrophages; assay: Incorporation of XG-102 into primary cultured macrophages, detected with a specific antibody; assay type: cell-based; details: incubated with peptide and extensively washed
# Experimental: FIG. 8 Primary cultured macrophages were incubated with XG-102 (SEQ ID NO: 11) and extensively washed.
# THP-1 cells = assay: LPS-induced cytokine and chemokine release in THP-1 cells; assay type: cell-based
# Text: (§1) XG-102 (SEQ ID NO:11) inhibits cytokine release in both myeloid and lymphoid cell lines, reducing LPS-induced TNFa, IL-6 and MCP-1 release in THP-1 cells (Panels A-C) and PMA & ionomycin-induced IFNg, IL-6 and IL-2 production in Jurkat cells (Panels D-F).
# Jurkat cells = assay: PMA & ionomycin-induced cytokine production in Jurkat cells; assay type: cell-based
# Text: as §1
# murine macrophages = assay: LPS-induced cytokine release in murine macrophages; assay type: cell-based
# murine T cells = assay: PMA & ionomycin-induced cytokine production in murine T cells; assay type: cell-based
# [7] = system: primary lymphoid and myeloid cells; assay: Cytotoxicity in primary cells (FIG. 12 Panel F); assay type: cell-based, murine
# TNBS-induced colitis [8] = assay: TNBS-induced colitis in mice (FIG. 13); assay type: in vivo; details: subcutaneous, 50 and 100 mg/kg
# Text: JNK is activated in macrophages and lymphocytes of patients with inflammatory bowel disease, a response correlated with increased TNFa, IL-6 and IFNg production in lesions.
# [9] = system: recombinant JNK1, JNK2 and JNK3; assay: Solid phase kinase assay, phosphorylation of c-Jun, ATF2 and Elk1 by recombinant JNKs; assay type: biochemical; details: GST-Jun (aa 1-73), 0-250 μM dosage study
# Experimental: The effects of the peptides on JNKs-mediated phosphorylation of their target transcription factors were investigated in vitro. Recombinant and non activated JNK1, JNK2 and JNK3 were produced using a TRANSCRIPTION AND TRANSLATION rabbit reticulocyte lysate kit (Promega) and used in solid phase kinase assays with c-Jun, ATF2 and Elk1, either alone or fused to glutathione-S-transferase (GST), as substrates. Dose response studies were performed wherein L-TAT or L-TAT-IB1(s) peptides (0-25 μM) were mixed with the recombinant JNK1, JNK2, or JNK3 kinases in reaction buffer (20 mM Tris-acetate, 1 mM EGTA, 10 mM p-nitrophenyl-phosphate (pNPP), 5 mM sodium pyrophosphate, 10 mM p-glycerophosphate, 1 mM dithiothreitol) for 20 minutes. The kinase reactions were then initiated by the addition of 10 mM MgCl2 and 5 pCi ^33P-dATP and 1 μg of either GST-Jun (aa 1-89), GST-AFT2 (aa 1-96) or GST-ELK1 (aa 307-428). GST-fusion proteins were purchased from Stratagene (La Jolla, Calif.).
# Ten μL of glutathione-agarose beads were also added to the mixture. Reaction products were then separated by SDS-PAGE on a denaturing 10% polyacrylamide gel. Gels were dried and subsequently exposed to X-ray films (Kodak). […] The ability of D-TAT, D-TAT-IB1(s) and L-TAT-IB1(s) peptides (0-250 μM dosage study) to inhibit GST-Jun (aa 1-73) phosphorylation by recombinant JNK1, JNK2, and JNK3 by were analyzed as described above. Overall, D-TAT-IB1(s) peptide decreased JNK-mediated phosphorylation of c-Jun, but at levels approximately 10-20 fold less efficiently than L-TAT-IB1(s).
molecule,measurement,setting,value
"O=C(O)c1cc(/N=N/c2ccc(S(=O)(=O)Nc3ccccn3)cc2)ccc1O [Sulfasalazine, reference compound]",clinical score,TNBS-induced colitis [1],reduction in the clinical score
same,gross pathology score of the colon,"TNBS-induced colitis [1]; end of study, 10 mg/kg PO daily",effective in reducing the gross pathology completely
NH2-PGTGCGDTYRPKRPTTLNLFPQVPRSQDT-COOH (H-PGTGCGDTYRPKRPTTLNLFPQVPRSQDT-OH) [IB1-long],efficiency in binding JNK relative to c-Jun or ATF2,JNK,approximately 100 fold
NH2-RRRQRRKKRG-COOH (D-amino acids; Description of sequence Peptide D-TAT (see Table 1)),entry into cells,TC-3 cell cultures,efficiently and rapidly (less than five minutes) entered cells
N#CC(c1ccnc(NCCc2cccnc2)n1)c1nc2ccccc2s1 (stereo not shown) [AS601245],delayed loss of hippocampal CA1 neurons,[2],significant protection
NH2-IPSPSVEEPHKHRPTTLRLTTLGAQDS-COOH (H-IPSPSVEEPHKHRPTTLRLTTLGAQDS-OH) [IB2-long],efficiency in binding JNK relative to c-Jun or ATF2,JNK,approximately 100 fold
"Fluorescein-labeled BSA: Fluorescein-labeled BSA (1 μM, 12 moles/mole BSA) used as a control [reference compound]",entry into cells,TC-3 cell cultures,did not enter the cells
NH2-GRKKRRQRRR-COOH (H-GRKKRRQRRR-OH) [L-TAT],entry into cells,TC-3 cell cultures,efficiently and rapidly (less than five minutes) entered cells
CCSCc1ccc2c(c1)c1c3c(c4c5cc(CSCC)ccc5n5c4c1n2[C@H]1C[C@](O)(C(=O)OC)[C@]5(C)O1)CNC3=O [CEP-1347],neuronal survival,[3],promotes neuronal survival
same,neuronal survival,[4],promotes neuronal survival
same,long term-survival of neurons,[5],promote long term-survival
NH2-TDQSRPVQPFLNLTTPRKPRYTDPPRRRQRRKKRG-COOH (HELM PEPTIDE1{[dT].[dD].[dQ].[dS].[dR].[dP].[dV].[dQ].[dP].[dF].[dL].[dN].[dL].[dT].[dT].[dP].[dR].[dK].[dP].[dR].[dY].[dT].[dD].[dP].[dP].[dR].[dR].[dR].[dQ].[dR].[dR].[dK].[dK].[dR].G}$$$$V2.0; SMILES CC(C)C[C@@H](NC(=O)[C@@H](Cc1ccccc1)NC(=O)[C@H]1CCCN1C(=O)[C@@H](CCC(N)=O)NC(=O)[C@H](NC(=O)[C@H]1CCCN1C(=O)[C@@H](CCCNC(=N)N)NC(=O)[C@@H](CO)NC(=O)[C@@H](CCC(N)=O)NC(=O)[C@@H](CC(=O)O)NC(=O)[C@H](N)[C@H](C)O)C(C)C)C(=O)N[C@H](CC(N)=O)C(=O)N[C@H](CC(C)C)C(=O)N[C@@H](C(=O)N[C@@H](C(=O)N1CCC[C@@H]1C(=O)N[C@H](CCCNC(=N)N)C(=O)N[C@H](CCCCN)C(=O)N1CCC[C@@H]1C(=O)N[C@H](CCCNC(=N)N)C(=O)N[C@H](Cc1ccc(O)cc1)C(=O)N[C@@H](C(=O)N[C@H](CC(=O)O)C(=O)N1CCC[C@@H]1C(=O)N1CCC[C@@H]1C(=O)N[C@H](CCCNC(=N)N)C(=O)N[C@H](CCCNC(=N)N)C(=O)N[C@H](CCCNC(=N)N)C(=O)N[C@H](CCC(N)=O)C(=O)N[C@H](CCCNC(=N)N)C(=O)N[C@H](CCCNC(=N)N)C(=O)N[C@H](CCCCN)C(=O)N[C@H](CCCCN)C(=O)N[C@H](CCCNC(=N)N)C(=O)NCC(=O)O)[C@H](C)O)[C@H](C)O)[C@H](C)O) [D-TAT-IB1],IL-1 induced apoptosis after two days,TC-3 cells; IL-1 10 ng/ml,decreased IL-1 induced apoptosis to a similar extent as L-TAT-IB peptides
NH2-DQSRPVQPFLNLTTPRKPRPPRRRQRRKKRG-COOH (H-[dD][dQ][dS][dR][dP][dV][dQ][dP][dF][dL][dN][dL][dT][dT][dP][dR][dK][dP][dR][dP][dP][dR][dR][dR][dQ][dR][dR][dK][dK][dR]G-OH) [XG-102],incorporation into primary macrophages,[6],strongly incorporated
same,LPS-induced IL-6 release,THP-1 cells,reducing
same,LPS-induced MCP-1 release,THP-1 cells,reducing
same,LPS-induced TNFa release,THP-1 cells,reducing
same,PMA & ionomycin-induced IFNg production,Jurkat cells,reducing
same,PMA & ionomycin-induced IL-2 production,Jurkat cells,reducing
same,PMA & ionomycin-induced IL-6 production,Jurkat cells,reducing
same,LPS-induced IL-6 release,murine macrophages,reducing
same,LPS-induced Rantes release,murine macrophages,reducing
same,LPS-induced TNFa release,murine macrophages,reducing
same,PMA & ionomycin-induced IFNg production,murine T cells,reducing
same,PMA & ionomycin-induced TNFa production,murine T cells,reducing
same,cytotoxicity at concentrations inhibiting cytokine release,[7],non-cytotoxic concentrations
same,DAI,TNBS-induced colitis [8],diminishing
same,protection from TNBS-induced colitis,TNBS-induced colitis [8],protects mice from TNBS-induced colitis
same,rectal bleeding,TNBS-induced colitis [8],diminishing
same,weight loss,TNBS-induced colitis [8],diminishing
same,clinical signs,"TNBS-induced colitis [1]; 0.01-1000 μg/kg SC or PO, single or daily for 7 days",No abnormalities were observed
same,disease recovery (conclusion),TNBS-induced colitis [1]; SC or PO,active in enhancing diseases recovery
same,clinical score,TNBS-induced colitis [1],an effect equivalent to or better than the one observed with the commonly used reference drug sulfasalazine
same,body weights (TNBS induced weight loss),"TNBS-induced colitis [1]; mouse, in vivo",either prevented the weight loss or ameliorated the symptoms and supported recovery
same,mortality rate,TNBS-induced colitis [1]; whole study,No mortality was recorded
same,entry into cells,TC-3 cell cultures,efficiently and rapidly (less than five minutes) entered cells
same,"decrease of JNK-mediated phosphorylation of c-Jun, fold less efficient than L-TAT-IB1(s)",[9],10-20 fold
same,"long term protection from IL-1 induced cell-death, 15 days",TC-3 cells; IL-1 10 ng/ml every two days,able to confer long term (15 day) protection
